A short description of data set [1]: Drug release studies, polymer-drug-clay extrudate (Example 3). It is filed as physicochemical. The text has this:
PEGIB is PEG+ibuprofen, PEGIBM is PEG+ibuprofen+montmorillonite (natural clay) and PEGIBS is PEG+ibuprofen+synthetic clay. In one embodiment the extrudate is rod shaped with a diameter of 1 mm.
In one embodiment the extrudate is rod shaped with a diameter of 1 mm.

Data set [2] in a line: Drug release studies, polymer-drug-clay disks (Example 3). It counts as physicochemical. From the text:
In a one embodiment the discs were 18 mm in diameter and 1 mm thick. Different sizes or shapes of discs will influence the release rate of the drug.

Molecules are shown by their SMILES. Bounds are passed on as bounds.

On to `CC(C)Cc1ccc(C(C)C(=O)O)cc1` (stereo not drawn) [Ibuprofen Powder, ibuprofen], for which, in data set [1] (PEG-Ibuprofen-Clay Extrudate), the “Time 50% release” value is under 5 min, the “Time 80% release” value is under 5 min and the “Time 100% release” value was 10 min. For the same molecule, in data set [2] (PEG-Ibuprofen-Clay Disks), the “Time 50% release” value is under 5 min, the “Time 80% release” value is under 5 min and the “Time 100% release” value came out at 10 min.

As to `CC(=O)Nc1ccc(O)cc1` [Paracetamol powder, paracetamol], the “Time 50% release” value in data set [1] (PCL-Paracetamol-Clay Extrudate), in data set [1] (PEG-Paracetamol-Clay Extrudate), in data set [2] (PCL-Paracetamol-Clay Disks) and in data set [2] (PEG-Paracetamol-Clay Disks) was under 5 min in each case. Also, the “Time 80% release” value in data set [1] (PCL-Paracetamol-Clay Extrudate), in data set [1] (PEG-Paracetamol-Clay Extrudate), in data set [2] (PCL-Paracetamol-Clay Disks) and in data set [2] (PEG-Paracetamol-Clay Disks) was under 5 min throughout. Besides, the “Time 100% release” value in data set [1] (PCL-Paracetamol-Clay Extrudate), in data set [1] (PEG-Paracetamol-Clay Extrudate), in data set [2] (PCL-Paracetamol-Clay Disks) and in data set [2] (PEG-Paracetamol-Clay Disks) was under 5 min each time.

The values above are taken from patent US20060147538A1, “Nanocomposite drug delivery composition” (THE QUEEN'S UNIVERSITY OF BELFAST, priority 2003, published 2006).
